# Measured values from PubChem BioAssay AID330 (DTP/NCI, 2004).
# “And” between values parts separate entries of the source, which are not always exact repeats. Equal entries are not always repeated. Toxic doses and inconclusive results are not listed.
# Test system: P388 leukemia ip, CD2F1 mice, survival T/C
# Experiment: NCI In Vivo Anticancer Drug Screen. Data for tumor model P388 Leukemia (intraperitoneal) in CD2F1 (CDF1) mice
# Conditions: endpoint: median survival time, higher = longer survival
# In short: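 Mice carrying the transplanted tumor received test compound or vehicle. Survival was recorded in each group, and the value is the treated-group measurement divided by that of the vehicle-treated control group.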
structure (smiles),measurement,setting,value
COc1cc2cc(c1Cl)N(C)C(=O)C[C@H](OC(=O)[C@H](C)N(C)C(C)=O)[C@]1(C)O[C@H]1[C@H](C)[C@@H]1C[C@@](O)(NC(=O)O1)[C@H](OC)C=C/C=C(\C)C2,T/C,"dose: 0.01 mg/kg/injection, schedule: Q01DX005 (iv), vehicle: saline",117 % of control
same,T/C,"dose: 0.03 mg/kg/injection, schedule: Q01DX005 (iv), vehicle: saline",107 % of control
same,T/C,"dose: 0.05 mg/kg/injection, schedule: Q01DX005 (ip), vehicle: saline",158 % of control
same,T/C,"dose: 0.05 mg/kg/injection, schedule: Q01DX005 (iv), vehicle: saline",104 % of control
same,T/C,"dose: 0.05 mg/kg/injection, schedule: Q04DX002 (ip), vehicle: saline + alcohol",169 % of control
same,T/C,"dose: 0.08 mg/kg/injection, schedule: Q04DX002 (ip), vehicle: saline + alcohol",171 % of control
same,T/C,"dose: 0.1 mg/kg/injection, schedule: Q01DX005 (ip), vehicle: saline",172 % of control
same,T/C,"dose: 0.1 mg/kg/injection, schedule: Q01DX005 (iv), vehicle: saline",107 % of control
same,T/C,"dose: 0.16 mg/kg/injection, schedule: Q04DX003 (ip), vehicle: saline",123 % of control
same,T/C,"dose: 0.1 micrograms/kg/injection, schedule: Q01DX009 (ip), vehicle: saline",100 % of control
same,T/C,"dose: 0.3 micrograms/kg/injection, schedule: Q03HX016 (ip), vehicle: other",122 % of control
same,T/C,"dose: 0.4 micrograms/kg/injection, schedule: Q01DX009 (ip), vehicle: saline",112 % of control
same,T/C,"dose: 0.5 micrograms/kg/injection, schedule: Q01DX009 (oral), vehicle: other",100 % of control
same,T/C,"dose: 0.5 micrograms/kg/injection, schedule: Q01DX009 (sc), vehicle: other",100 % of control
same,T/C,"dose: 0.5 micrograms/kg/injection, schedule: Q03HX008 (ip), vehicle: other",122 % of control
same,T/C,"dose: 0.8 micrograms/kg/injection, schedule: Q01DX009 (ip), vehicle: saline",120 % of control
same,T/C,"dose: 1.0 micrograms/kg/injection, schedule: Q01DX001 (ip), vehicle: other",109 % of control
same,T/C,"dose: 1.0 micrograms/kg/injection, schedule: Q01DX009 (ip), vehicle: saline + alcohol",111 % of control
same,T/C,"dose: 1.0 micrograms/kg/injection, schedule: Q01DX009 (oral), vehicle: other",100 % of control
same,T/C,"dose: 1.0 micrograms/kg/injection, schedule: Q01DX009 (sc), vehicle: other",100 % of control
same,T/C,"dose: 1.0 micrograms/kg/injection, schedule: Q08DX002 (ip), vehicle: other",109 % of control
same,T/C,"dose: 2.0 micrograms/kg/injection, schedule: Q01DX001 (oral), vehicle: other",100 % of control
same,T/C,"dose: 2.0 micrograms/kg/injection, schedule: Q01DX001 (sc), vehicle: other",100 % of control
same,T/C,"dose: 2.0 micrograms/kg/injection, schedule: Q01DX009 (ip), vehicle: water",117 % of control
same,T/C,"dose: 2.0 micrograms/kg/injection, schedule: Q01DX009 (sc), vehicle: other",100 % of control
same,T/C,"dose: 3.1 micrograms/kg/injection, schedule: Q01DX009 (ip), vehicle: saline + alcohol",158 % of control
same,T/C,"dose: 4.0 micrograms/kg/injection, schedule: Q01DX001 (oral), vehicle: other",100 % of control
same,T/C,"dose: 4.0 micrograms/kg/injection, schedule: Q01DX009 (ip), vehicle: other",154 % of control
same,T/C,"dose: 4.0 micrograms/kg/injection, schedule: Q01DX009 (ip), vehicle: water",157 % of control
same,T/C,"dose: 4.0 micrograms/kg/injection, schedule: Q01DX009 (oral), vehicle: other",104 % of control
same,T/C,"dose: 4.0 micrograms/kg/injection, schedule: Q01DX009 (sc), vehicle: other",100 % of control
same,T/C,"dose: 4.0 micrograms/kg/injection, schedule: Q03HX016 (ip), vehicle: other",159 % of control
same,T/C,"dose: 6.3 micrograms/kg/injection, schedule: Q01DX009 (ip), vehicle: saline + alcohol",160 % of control
same,T/C,"dose: 6.3 micrograms/kg/injection, schedule: Q01DX009 (ip), vehicle: saline",159 % of control
same,T/C,"dose: 8.0 micrograms/kg/injection, schedule: Q01DX001 (oral), vehicle: other",104 % of control
same,T/C,"dose: 8.0 micrograms/kg/injection, schedule: Q01DX001 (sc), vehicle: other",100 % of control
same,T/C,"dose: 8.0 micrograms/kg/injection, schedule: Q01DX005 (ip), vehicle: saline + alcohol",157 % of control
same,T/C,"dose: 8.0 micrograms/kg/injection, schedule: Q01DX009 (ip), vehicle: other",154 % of control
same,T/C,"dose: 8.0 micrograms/kg/injection, schedule: Q01DX009 (ip), vehicle: water",150 % of control
same,T/C,"dose: 8.0 micrograms/kg/injection, schedule: Q01DX009 (oral), vehicle: other",100 % of control
same,T/C,"dose: 8.0 micrograms/kg/injection, schedule: Q01DX009 (sc), vehicle: other",100 % of control
same,T/C,"dose: 8.0 micrograms/kg/injection, schedule: Q03HX008 (ip), vehicle: other",163 % of control
same,T/C,"dose: 8.0 micrograms/kg/injection, schedule: Q03HX016 (ip), vehicle: other",163 % of control
same,T/C,"dose: 8.0 micrograms/kg/injection, schedule: Q03HX016 (ip), vehicle: saline + alcohol",163 % of control
same,T/C,"dose: 8.0 micrograms/kg/injection, schedule: Q04DX003 (ip), vehicle: other",150 % of control
same,T/C,"dose: 12.5 micrograms/kg/injection, schedule: Q01DX009 (ip), vehicle: saline + alcohol",159 % of control and 172 % of control
same,T/C,"dose: 16.0 micrograms/kg/injection, schedule: Q01DX001 (oral), vehicle: other",100 % of control
same,T/C,"dose: 16.0 micrograms/kg/injection, schedule: Q01DX001 (sc), vehicle: other",100 % of control
same,T/C,"dose: 16.0 micrograms/kg/injection, schedule: Q01DX005 (ip), vehicle: saline + alcohol",155 % of control and 157 % of control and 160 % of control
same,T/C,"dose: 16.0 micrograms/kg/injection, schedule: Q01DX009 (ip), vehicle: water",159 % of control
same,T/C,"dose: 16.0 micrograms/kg/injection, schedule: Q01DX009 (oral), vehicle: other",100 % of control
same,T/C,"dose: 16.0 micrograms/kg/injection, schedule: Q01DX009 (sc), vehicle: other",100 % of control
same,T/C,"dose: 16.0 micrograms/kg/injection, schedule: Q03HX008 (ip), vehicle: saline + alcohol",163 % of control
same,T/C,"dose: 16.0 micrograms/kg/injection, schedule: Q04DX003 (ip), vehicle: other",154 % of control
same,T/C,"dose: 16.0 micrograms/kg/injection, schedule: Q04DX003 (ip), vehicle: water",151 % of control
same,T/C,"dose: 25.0 micrograms/kg/injection, schedule: Q01DX009 (ip), vehicle: saline + alcohol",163 % of control
same,T/C,"dose: 32.0 micrograms/kg/injection, schedule: Q01DX001 (oral), vehicle: other",100 % of control
same,T/C,"dose: 32.0 micrograms/kg/injection, schedule: Q01DX001 (sc), vehicle: other",100 % of control
same,T/C,"dose: 32.0 micrograms/kg/injection, schedule: Q01DX005 (ip), vehicle: saline + alcohol",163 % of control and 172 % of control
same,T/C,"dose: 32.0 micrograms/kg/injection, schedule: Q01DX009 (oral), vehicle: other",109 % of control
same,T/C,"dose: 32.0 micrograms/kg/injection, schedule: Q01DX009 (sc), vehicle: other",104 % of control
same,T/C,"dose: 32.0 micrograms/kg/injection, schedule: Q03HX016 (ip), vehicle: saline + alcohol",163 % of control
same,T/C,"dose: 32.0 micrograms/kg/injection, schedule: Q03HX024 (ip), vehicle: saline + alcohol",122 % of control
same,T/C,"dose: 32.0 micrograms/kg/injection, schedule: Q04DX003 (ip), vehicle: other",172 % of control
same,T/C,"dose: 50.0 micrograms/kg/injection, schedule: Q01DX005 (ip), vehicle: saline",173 % of control
same,T/C,"dose: 50.0 micrograms/kg/injection, schedule: Q01DX009 (ip), vehicle: saline + alcohol",159 % of control
same,T/C,"dose: 64.0 micrograms/kg/injection, schedule: Q01DX001 (oral), vehicle: other",100 % of control
same,T/C,"dose: 64.0 micrograms/kg/injection, schedule: Q01DX001 (sc), vehicle: other",100 % of control
same,T/C,"dose: 64.0 micrograms/kg/injection, schedule: Q01DX005 (ip), vehicle: saline + alcohol",173 % of control and 175 % of control
same,T/C,"dose: 64.0 micrograms/kg/injection, schedule: Q01DX009 (oral), vehicle: other",104 % of control
same,T/C,"dose: 64.0 micrograms/kg/injection, schedule: Q01DX009 (sc), vehicle: other",109 % of control
same,T/C,"dose: 64.0 micrograms/kg/injection, schedule: Q03HX008 (ip), vehicle: saline + alcohol",159 % of control
same,T/C,"dose: 64.0 micrograms/kg/injection, schedule: Q04DX003 (ip), vehicle: water",161 % of control
same,T/C,"dose: 64.0 micrograms/kg/injection, schedule: Q08DX002 (ip), vehicle: other",150 % of control
same,T/C,"dose: 86.4 micrograms/kg/injection, schedule: Q04DX002 (ip), vehicle: saline + alcohol",160 % of control
same,T/C,"dose: 128.0 micrograms/kg/injection, schedule: Q01DX001 (ip), vehicle: other",154 % of control
same,T/C,"dose: 128.0 micrograms/kg/injection, schedule: Q01DX001 (oral), vehicle: other",104 % of control
same,T/C,"dose: 128.0 micrograms/kg/injection, schedule: Q01DX001 (sc), vehicle: other",109 % of control
same,T/C,"dose: 128.0 micrograms/kg/injection, schedule: Q01DX009 (oral), vehicle: other",100 % of control
same,T/C,"dose: 128.0 micrograms/kg/injection, schedule: Q01DX009 (sc), vehicle: saline + alcohol",154 % of control
same,T/C,"dose: 128.0 micrograms/kg/injection, schedule: Q04DX003 (ip), vehicle: saline + alcohol",163 % of control
same,T/C,"dose: 128.0 micrograms/kg/injection, schedule: Q04DX003 (ip), vehicle: water",150 % of control
same,T/C,"dose: 128.0 micrograms/kg/injection, schedule: Q08DX002 (ip), vehicle: other",163 % of control
same,T/C,"dose: 128.0 micrograms/kg/injection, schedule: Q08DX002 (ip), vehicle: saline + alcohol",163 % of control
same,T/C,"dose: 128.0 micrograms/kg/injection, schedule: Q08DX002 (ip), vehicle: saline",154 % of control
same,T/C,"dose: 144.0 micrograms/kg/injection, schedule: Q04DX002 (ip), vehicle: saline + alcohol",169 % of control
same,T/C,"dose: 256.0 micrograms/kg/injection, schedule: Q01DX001 (ip), vehicle: other",150 % of control
same,T/C,"dose: 256.0 micrograms/kg/injection, schedule: Q01DX001 (ip), vehicle: saline + alcohol",150 % of control
same,T/C,"dose: 256.0 micrograms/kg/injection, schedule: Q01DX001 (oral), vehicle: other",104 % of control
same,T/C,"dose: 256.0 micrograms/kg/injection, schedule: Q01DX009 (sc), vehicle: saline + alcohol",172 % of control
same,T/C,"dose: 256.0 micrograms/kg/injection, schedule: Q08DX002 (ip), vehicle: saline",172 % of control
same,T/C,"dose: 512.0 micrograms/kg/injection, schedule: Q01DX001 (ip), vehicle: saline + alcohol",154 % of control
same,T/C,"dose: 512.0 micrograms/kg/injection, schedule: Q01DX001 (oral), vehicle: other",100 % of control
same,T/C,"dose: 1024.0 micrograms/kg/injection, schedule: Q08DX002 (ip), vehicle: saline",109 % of control
